Assay results taken from patent US4537885A, “Certain benzazocinone and benzazoninone derivatives” (Ciba Geigy Corporation, priority 1984, dated 1985).
pIC50: −log10 of the molar value. Structures can show the parent of a compound that is named as a salt.

Legend:
[1] = target: T1, angiotensin-converting enzyme (Oryctolagus cuniculus, UniProt P12822); experiment: in vitro inhibition of the angiotensin-converting enzyme (hippuryl-histidyl-leucine substrate); assay type: biochemical, rabbit; settings: in vitro test; enzyme from lungs of adult male rabbits; 37° C., 30 minutes
T1 construct: angiotensin-converting enzyme preparation (from lungs of adult male rabbits); from tissue; host or cells: lungs of adult male rabbits
T1 sequence (P12822 34-1310): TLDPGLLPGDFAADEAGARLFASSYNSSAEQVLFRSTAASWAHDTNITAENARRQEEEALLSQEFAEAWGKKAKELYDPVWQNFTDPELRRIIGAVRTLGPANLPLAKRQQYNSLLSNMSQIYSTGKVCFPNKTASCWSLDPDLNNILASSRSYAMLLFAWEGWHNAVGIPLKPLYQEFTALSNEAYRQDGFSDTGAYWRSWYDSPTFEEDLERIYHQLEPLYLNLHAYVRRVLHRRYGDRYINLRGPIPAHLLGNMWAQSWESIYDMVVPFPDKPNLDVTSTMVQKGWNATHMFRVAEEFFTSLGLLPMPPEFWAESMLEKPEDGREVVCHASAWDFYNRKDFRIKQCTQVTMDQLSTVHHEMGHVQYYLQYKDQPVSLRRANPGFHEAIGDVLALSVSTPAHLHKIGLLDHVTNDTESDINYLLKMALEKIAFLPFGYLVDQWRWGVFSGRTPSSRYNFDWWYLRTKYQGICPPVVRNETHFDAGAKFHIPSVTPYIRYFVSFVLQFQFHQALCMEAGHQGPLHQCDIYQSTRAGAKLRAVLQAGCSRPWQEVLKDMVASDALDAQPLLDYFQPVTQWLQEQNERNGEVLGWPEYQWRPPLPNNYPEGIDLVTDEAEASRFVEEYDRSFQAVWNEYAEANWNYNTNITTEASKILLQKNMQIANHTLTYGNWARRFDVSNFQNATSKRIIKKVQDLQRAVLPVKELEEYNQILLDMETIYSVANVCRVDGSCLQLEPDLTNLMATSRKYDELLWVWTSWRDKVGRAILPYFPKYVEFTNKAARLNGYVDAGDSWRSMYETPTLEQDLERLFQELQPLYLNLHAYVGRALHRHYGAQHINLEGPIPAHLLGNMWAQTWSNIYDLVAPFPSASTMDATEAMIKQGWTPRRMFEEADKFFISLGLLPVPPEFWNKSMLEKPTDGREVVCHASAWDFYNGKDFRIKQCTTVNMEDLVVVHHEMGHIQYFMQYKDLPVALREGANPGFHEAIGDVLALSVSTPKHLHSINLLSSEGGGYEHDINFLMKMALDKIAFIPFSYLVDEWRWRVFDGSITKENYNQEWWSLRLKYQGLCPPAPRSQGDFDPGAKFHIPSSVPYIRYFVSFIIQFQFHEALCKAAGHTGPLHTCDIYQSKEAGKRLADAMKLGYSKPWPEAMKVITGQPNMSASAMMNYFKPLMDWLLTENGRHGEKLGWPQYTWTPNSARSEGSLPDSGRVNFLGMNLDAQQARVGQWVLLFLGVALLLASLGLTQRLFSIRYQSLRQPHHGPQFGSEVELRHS
Protocol: Biophys. Acta 293, 451 (1973). According to this method, said compounds are dissolved at about 1 mM concentration in phosphate buffer. […] Said solutions are incubated at 37° C. for 30 minutes and combined with 0.75 ml of 0.6N aqueous sodium hydroxide to stop further reaction. Then 100 microliters of a 0.2% solution of o-phthalaldehyde in methanol are added at room temperature, and 10 minutes later 100 microliters of 6N hydrochloric acid. These samples are read against water in a spectrophotometer set at 360 nm, and the optical densities thereof estimated. They are corrected for the standard curve via a conversion factor expressing nanomoles of histidyl-leucine formed during said 30 minute incubation period. The results are plotted against concentration to determine the IC50, i.e., the concentration of the compound which gives half the activity of the control sample. Illustrative of the invention, and according to the test methods previously described, the following angiotensin-converting enzyme inhibition data is obtained.

[2] = tested on: angiotensin-converting enzyme; experiment: in vivo inhibition of the Angiotensin I induced pressor response in anesthetized normotensive rats; settings: p.o. administration of 3.3 mg/kg (rat), at 1 hr
Protocol: Angiotensin I is hydrolyzed by the action of said converting enzyme to the potent pressor substance Angiotensin II. The inhibition of said enzyme prevents the generation of Angiotensin II from I and, therefore, attenuates any pressor response following an Angiotensin I challenge.
The corresponding in vivo test is performed with male, normotensive rats, which are anesthetized with sodium 5-ethyl-5-(1-methylpropyl)-2-thiobarbiturate. A femoral artery and saphenous vein are cannulated respectively for direct blood pressure measurement and the i.v. administration of Angiotensin I and a compound of this invention. After the basal blood pressure is stabilized, pressor responses to 3 challenges of 333 ng/kg angiotensin I i.v., at 5 minute intervals, are obtained. Such pressure resonses are usually again obtained at 5, 10, 15, 30 and 60 minutes after i.v. administration or 1, 2, 3 and 4 hours after p.o. administration of the compound to be tested, and compared with the initial responses. Any observed decrease of said pressor response caused by the compounds of the invention is an indication of Angiotensin I converting enzyme inhibition.
Illustrative of the invention, and according to the test methods previously described, the following angiotensin-converting enzyme inhibition data is obtained.

Row | SMILES | pIC50 [1] | inhibition of Angiotensin I pressor response (in vivo test) [2] [%]
1 | NCCCC[C@H](N[C@H]1CCCc2ccccc2N(CC(=O)O)C1=O)C(=O)O [S,S compound of example 12, 3-[(5-amino-1-(S)-carboxypentyl)amino]-1-carboxymethyl-3,4,5,6-tetrahydro-(3S)-1-benzazocin-2-1H-one hydrochloride] | 7.57 | –
2 | O=C(O)CN1C(=O)[C@@H](N[C@@H](CCc2ccccc2)C(=O)O)CCCc2ccccc21 [example 7a, 1-carboxymethyl-3-(1-carboxy-3-phenyl-(1S)-propylamino)-3,4,5,6-tetrahydro-(3S)-1-benzazocin-2-1H-one hydrochloride] | 8.12 | –
3 | CCOC(=O)[C@H](CCc1ccccc1)N[C@H]1CCCc2ccccc2N(CC(=O)O)C1=O [example 8a, 1-carboxymethyl-3-(1-ethoxycarbonyl-3-phenyl-(1S)-propylamino-3,4,5,6-tetrahydro-(3S)-1-benzazocin-2-1H-one hydrochloride] | – | 69
